Reference: patent US6653340B1, “Compounds useful in the complement, coagulat and kallikrein pathways and method for their preparation” (BioCryst Pharmaceuticals, Inc., priority 1997, dated 2003)
pIC50: −log10 of the molar value.

Columns and labels:
Format in all cases: biochemical
C1s = molecular target: T1, C1s (Homo sapiens, UniProt P09871); assay: C1s esterolytic inhibition assay (Z-Lys-SBzl substrate); conditions: Z-Lys-SBzl 1.29 mM, C1s 3 to 13 nM; read-out: Cls (Serine Protease Inhibitory Data, IC50)
T1 sequence (P09871 16-688): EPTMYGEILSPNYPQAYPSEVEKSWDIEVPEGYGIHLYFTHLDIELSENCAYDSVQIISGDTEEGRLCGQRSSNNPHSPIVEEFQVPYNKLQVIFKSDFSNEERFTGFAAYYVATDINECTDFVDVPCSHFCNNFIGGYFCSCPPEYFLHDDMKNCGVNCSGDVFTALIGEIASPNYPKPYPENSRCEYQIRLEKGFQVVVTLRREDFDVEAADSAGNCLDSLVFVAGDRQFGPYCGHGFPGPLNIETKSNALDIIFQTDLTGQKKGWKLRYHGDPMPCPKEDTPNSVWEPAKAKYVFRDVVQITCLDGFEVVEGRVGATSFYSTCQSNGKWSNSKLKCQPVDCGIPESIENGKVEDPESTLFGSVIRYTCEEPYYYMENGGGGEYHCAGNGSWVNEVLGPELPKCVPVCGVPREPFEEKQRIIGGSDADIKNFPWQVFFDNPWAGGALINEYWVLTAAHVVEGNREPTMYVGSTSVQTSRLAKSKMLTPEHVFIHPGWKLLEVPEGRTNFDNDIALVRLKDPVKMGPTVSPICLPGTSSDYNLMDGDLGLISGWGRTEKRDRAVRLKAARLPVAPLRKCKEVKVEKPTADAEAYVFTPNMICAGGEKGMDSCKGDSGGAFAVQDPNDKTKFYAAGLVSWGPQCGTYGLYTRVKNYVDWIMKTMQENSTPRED
Description: (§1) The compounds to be tested were dissolved in a stock solution of DMSO at 10.0 or 100 mM. A portion of this stock solution was added to assay buffer in a final volume of 100 μL containing the enzyme of interest. Controls included buffer alone and enzyme solutions to which DMSO was added. Substrate was added to the reaction wells immediately or after incubation at room temperature. The reaction rates were measured spectrophotometrically by the generation of product at 405 nm for 200 sec. Background absorbance at 690 nm was measured and subtracted from the absorbance at 405 nm for each well.
(§2) The reaction rate for enzyme alone was compared to the rate of enzyme in the presence of inhibitor and the percent inhibition was calculated as shown below:
(§3) Percent Inhibition=[Rate without inhibitor−Rate with inhibitor)/(Rate without inhibitor)]×100
(§4) Compounds in the examples were tested a minimum of three times.
C1s esterolytic activity was assayed using a modification of the technique originally described by Kam using Z-Lys-SBzl, 1.29 mM as substrate and C1s at 3 to 13 nM.

Factor Xa = Factor Xa (Homo sapiens, UniProt P00742); assay: Factor Xa inhibition assay (Chromozyme X substrate); conditions: Factor Xa 0.5 U/mL, pH 8.0; read-out: Xa (Serine Protease Inhibitory Data, IC50)
Description: as §1, §2, §3, §4
(§5) Thrombin was assayed at 12.5 U/ml using 0.37 mM N-Benzoyl-Phe-Val-Arg-p-nitroanilide (Svendsen, L.; Blomback B.; Blomback, M.; Olsson, P. I. Substrate for determination of trypsin, thrombin and thrombin-like enzymes. Folia Haematol. 1972, 98, 446-454.) as the substrate in 100 mM HEPES, 10 mM CaCl2, 10% DMSO, pH 7.5. Factor Xa, 0.5 U/mL, was assayed in 50 mM HEPES, 150 mM NaCl, 10 mM CaCl2, pH 8.0 using Chromozyme X, 0.17 mM, as the substrate. Plasmin (0.004 units/mL), factor XIIa ([…]) and kallikrein (0.02 units/mL were assayed using modifications of the techniques originally described by McRae, et al. (Biochemistry. 1981, 20, 7196-7206). The assays were run in 200 mM triethanolamine, pH 7.8 and 100 mM Tris-HCl, 100 mM EDTA, […] using Z-Lys-SBzl, 0.13 mM and […], 0.16 mM, as substrates, respectively.

Factor D = Factor D (Homo sapiens, UniProt P00746); assay: Factor D esterolytic inhibition assay (Z-Lys-SBzl substrate); parameters: Factor D was purified from the urine of a patient with Fanconi syndrome by ion exchange chromatography; from tissue; host or cells: urine of a patient with Fanconi syndrome; conditions: Z-Lys-SBzl 1.29 mM, pH 7.5, 10% DMSO; read-out: Factor D (Serine Protease Inhibitory Data, IC50)
Source text: A modification of the procedure of Volanakis (Volankis, J. E.; Barnum, S. R.; Kilpatrick, J. M. Purification and properties of human factor D. Methods in Enzymol. 1993, 223, 82-97) for purification of Factor D was utilized as described by Yamauchi (Yamauchi, Y.; Stevens, J. W.; Macon, K. J.; Volanakis, J. E. Recombinant and native zymogen forms of human complement factor D. J. Immunol. 1994, 152, 3645-3653. Briefly, Factor D was purified from the urine of a patient with Fanconi syndrome by ion exchange chromatography using BioRex 70 and two rounds of ion-exchange chromatography in a Pharmacia FPLC system using a HR5/5 Mono S column.
as §1, §2, §3, §4
An established esterolytic assay for the measurement of Factor D activity and inhibition of Factor D activity was used (Kam, C. M.; McRae, B. J.; Harper, J. W.; Niemann, M. A.; Volanakis, J. E.; Powers, J. C. Human complement proteins D, C2, and B Active site mapping with peptide thioester substrates. J Biol. Chem. 1987, 262, 3444-3451). […] Hydrolysis of this compound by Factor D liberated a free sulfhydryl group which is then reacted with 5,5′-dithiobis(2nitrobenzoic acid) producing an intense yellow color (Habeeb, A. F. S. A. Reaction of protein sulfhydryl groups with Ellman's Reagent. Methods in Enzymol. 1976, 25, 457-464.). The assays were performed in 96 well microtiter plates and rates of hydrolysis were monitored at 405 nm in a Anthos Labtec HT2 plate reader. Hydrolysis rates were reported as change in mOD/min. The assay was conducted in 100 mM HEPES, 500 mM NaCl, pH 7.5 containing 10% DMSO in a final volume of 200 μL per well.

Plasmin = Plasmin (Homo sapiens, UniProt P00747); assay: Plasmin inhibition assay (thioester substrate); conditions: plasmin 0.004 units/mL; read-out: Plasmin (Serine Protease Inhibitory Data, IC50)
Description: as §1, §2, §3, §4, §5

kallikrein = kallikrein (Homo sapiens, UniProt P03952); assay: Kallikrein inhibition assay (thioester substrate); conditions: kallikrein 0.02 units/mL; read-out: Kallikrein (Serine Protease Inhibitory Data, IC50)
Description: as §1, §2, §3, §4, §5

Thrombin = Thrombin (Homo sapiens, UniProt P00734); assay: Thrombin inhibition assay (N-Benzoyl-Phe-Val-Arg-p-nitroanilide substrate); conditions: thrombin 12.5 U/ml, pH 7.5; read-out: Thrombin (Serine Protease Inhibitory Data, IC50)
Description: as §1, §2, §3, §4, §5

factor XIIa = molecular target: T2, factor XIIa (Homo sapiens, UniProt P00748); assay: Factor XIIa inhibition assay (thioester substrate); conditions: read-out: XIIa (Serine Protease Inhibitory Data, IC50)
T2 sequence (P00748 373-615 limits assumed): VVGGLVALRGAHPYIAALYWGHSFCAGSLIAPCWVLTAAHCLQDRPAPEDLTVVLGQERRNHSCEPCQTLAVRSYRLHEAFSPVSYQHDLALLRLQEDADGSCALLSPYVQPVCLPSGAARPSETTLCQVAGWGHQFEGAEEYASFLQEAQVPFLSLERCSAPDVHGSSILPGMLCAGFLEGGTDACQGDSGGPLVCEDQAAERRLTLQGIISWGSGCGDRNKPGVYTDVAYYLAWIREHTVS
Description: as §1, §2, §3, §4, §5

Chain of Factor D (P00746 26-253): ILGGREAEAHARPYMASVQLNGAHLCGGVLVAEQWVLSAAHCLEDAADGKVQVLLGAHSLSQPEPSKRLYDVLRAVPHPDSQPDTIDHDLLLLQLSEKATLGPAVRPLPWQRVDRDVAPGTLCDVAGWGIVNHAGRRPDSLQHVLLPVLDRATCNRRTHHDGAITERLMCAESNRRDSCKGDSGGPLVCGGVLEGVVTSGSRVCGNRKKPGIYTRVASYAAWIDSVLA
Chain of Factor Xa (P00742 235-488 limits assumed): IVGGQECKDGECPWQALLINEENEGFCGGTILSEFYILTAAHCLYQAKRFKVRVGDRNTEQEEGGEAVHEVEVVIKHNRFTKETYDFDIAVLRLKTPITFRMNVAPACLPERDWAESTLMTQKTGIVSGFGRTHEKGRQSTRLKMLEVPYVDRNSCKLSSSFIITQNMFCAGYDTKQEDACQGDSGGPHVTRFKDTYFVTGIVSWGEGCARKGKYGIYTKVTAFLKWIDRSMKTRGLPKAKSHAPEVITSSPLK
Chain of Factor Xa (P00742 41-179 partner limits assumed): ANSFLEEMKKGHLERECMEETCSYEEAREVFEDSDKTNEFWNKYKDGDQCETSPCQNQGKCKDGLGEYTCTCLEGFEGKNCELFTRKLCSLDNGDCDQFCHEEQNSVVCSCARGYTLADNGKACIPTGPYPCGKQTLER
Chain of kallikrein (P03952 whole entry): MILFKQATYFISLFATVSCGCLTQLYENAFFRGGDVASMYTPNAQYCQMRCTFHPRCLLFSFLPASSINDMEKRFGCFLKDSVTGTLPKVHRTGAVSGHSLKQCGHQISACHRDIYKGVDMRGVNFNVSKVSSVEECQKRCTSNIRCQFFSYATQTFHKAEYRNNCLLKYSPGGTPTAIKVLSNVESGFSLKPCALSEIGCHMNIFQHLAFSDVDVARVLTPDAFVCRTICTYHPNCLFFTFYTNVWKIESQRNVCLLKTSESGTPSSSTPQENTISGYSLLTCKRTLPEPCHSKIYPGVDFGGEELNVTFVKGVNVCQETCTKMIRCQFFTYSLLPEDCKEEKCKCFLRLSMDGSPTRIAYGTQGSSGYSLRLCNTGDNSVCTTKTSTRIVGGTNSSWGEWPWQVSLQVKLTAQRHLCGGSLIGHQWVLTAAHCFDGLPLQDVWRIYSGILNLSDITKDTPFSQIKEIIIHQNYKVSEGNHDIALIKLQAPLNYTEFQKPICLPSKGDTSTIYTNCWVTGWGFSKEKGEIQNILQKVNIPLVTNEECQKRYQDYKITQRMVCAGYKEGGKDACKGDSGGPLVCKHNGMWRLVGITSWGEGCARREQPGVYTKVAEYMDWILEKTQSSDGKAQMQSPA
Chain of Plasmin (P00747 581-810 limits assumed, species assumed): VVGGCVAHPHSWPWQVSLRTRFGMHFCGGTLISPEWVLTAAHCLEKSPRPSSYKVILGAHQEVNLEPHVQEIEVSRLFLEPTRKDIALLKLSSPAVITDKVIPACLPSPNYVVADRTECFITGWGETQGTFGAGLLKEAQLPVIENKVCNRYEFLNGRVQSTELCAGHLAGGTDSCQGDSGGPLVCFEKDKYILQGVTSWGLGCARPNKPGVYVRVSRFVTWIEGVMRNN
Chain of Plasmin (P00747 97-580 partner limits assumed, species assumed): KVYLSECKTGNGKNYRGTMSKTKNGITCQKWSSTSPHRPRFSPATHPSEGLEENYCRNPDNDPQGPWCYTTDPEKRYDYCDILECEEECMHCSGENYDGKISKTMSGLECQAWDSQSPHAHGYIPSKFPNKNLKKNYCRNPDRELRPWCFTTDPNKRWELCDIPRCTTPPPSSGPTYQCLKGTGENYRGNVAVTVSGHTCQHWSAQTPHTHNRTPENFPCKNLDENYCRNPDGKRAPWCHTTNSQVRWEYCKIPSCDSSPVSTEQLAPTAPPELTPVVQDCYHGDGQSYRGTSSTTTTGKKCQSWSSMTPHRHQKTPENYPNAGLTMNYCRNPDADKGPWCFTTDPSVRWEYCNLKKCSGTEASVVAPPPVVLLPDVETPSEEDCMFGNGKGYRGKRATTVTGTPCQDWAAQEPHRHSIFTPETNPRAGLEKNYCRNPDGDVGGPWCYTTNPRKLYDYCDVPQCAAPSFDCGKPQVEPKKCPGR

SMILES | pIC50 (C1s) | pIC50 (Factor Xa) | pIC50 (Factor D) | pIC50 (Plasmin) | pIC50 (kallikrein) | pIC50 (Thrombin) | pIC50 (factor XIIa)
N=C(N)c1cc2ccc(OC(=O)c3ccco3)cc2o1 [Example 1, 2-Amidino-6-benzofuranyl 2-furanylcarboxylate] | 7.43 | 7.22 | 5.44 | 7.38 | 8.27 | 7.24 | 7.70
N=C(N)c1cc2cc(OC(=O)c3ccsc3)ccc2o1 [Example 6] | 6.91 | 6.30 | 4.97 | 6.26 | – | 6.44 | –
CC/C=C/C(=O)Oc1ccc2cc(C(=N)N)sc2c1 [Example 20] | 8.22 | 8.30 | 6.72 | 8.22 | 7.92 | 7.33 | 7.57
N=C(N)c1cc2ccc(OC(=O)c3ccccc3)cc2s1 [Example 7] | 7.96 | 7.64 | 6.30 | 7.96 | 8.89 | 7.41 | 6.05
N=C(N)C1COc2cc(OC(=O)c3ccco3)ccc2C1 (stereo not shown) [Example 19] | 6.12 | – | 4.30 | – | 6.18 | – | –
N=C(N)c1cc2ccc(OC(=O)c3ccco3)cc2s1 [Example 8] | 8.77 | 9.00 | 6.83 | 9.00 | 8.85 | 7.36 | 8.27
N=C(N)c1ccc2cc(OC(=O)c3ccccc3)ccc2c1 [reference, reference compound] | 7.40 | 5.14 | 5.40 | – | – | 5.51 | –
N=C(N)c1cc2ccc(OC(=O)c3ccoc3)cc2s1 [Example 10] | 8.39 | 9.00 | 6.75 | 9.00 | 8.80 | 7.33 | 7.76
N=C(N)c1cc2ccc(OC(=O)c3ccsc3)cc2s1 [Example 11] | 8.37 | 8.22 | 6.76 | 8.05 | 8.80 | 7.41 | 7.90
N=C(N)c1cc2cc(OC(=O)c3ccco3)ccc2o1 [Example 3] | 7.25 | 8.40 | 6.34 | 7.64 | 8.27 | 7.19 | 7.69
N=C(N)C1=Cc2ccc(OC(=O)c3ccco3)cc2OC1 [Example 18, 3-amidino-7-(2H-1-benzopyran) 2-furancarboxylate methanesulfonate] | 8.54 | 8.41 | 6.46 | 8.82 | 8.44 | 7.29 | 8.21
N=C(N)c1nc2ccc(OC(=O)c3ccc(Cl)s3)cc2s1 [Example 17] | 8.70 | 8.70 | 6.59 | 8.52 | – | 7.32 | –
N=C(N)c1nc2ccc(OC(=O)c3ccsc3)cc2s1 [Example 16] | 8.60 | 7.51 | 6.69 | 7.68 | 8.59 | 7.38 | 8.00
N=C(N)c1cc2cc(OC(=O)c3cccs3)ccc2o1 [Example 4] | 7.30 | 6.06 | 5.25 | 6.94 | – | 6.91 | –
N=C(N)c1nc2ccc(OC(=O)c3cccs3)cc2s1 [Example 14] | 8.70 | 7.92 | 6.60 | 8.22 | 8.70 | 7.74 | 8.30
N=C(N)c1cc2cc(OC(=O)c3ccoc3)ccc2o1 [Example 5] | 7.12 | 5.80 | 5.55 | 6.49 | – | 6.98 | –
N=C(N)c1nc2ccc(OC(=O)c3ccccc3)cc2s1 [Example 12] | 8.28 | 7.28 | 6.25 | 7.43 | 8.42 | 7.36 | 7.89
N=C(N)c1cc2ccc(OC(=O)c3cccs3)cc2o1 [Example 2] | 6.28 | 6.00 | 5.04 | 6.09 | – | 6.28 | –
N=C(N)c1cc2ccc(OC(=O)c3cccs3)cc2s1 [Example 9] | 8.80 | 8.49 | 7.02 | 8.39 | 8.85 | 7.38 | 8.22
N=C(N)c1nc2ccc(OC(=O)c3ccoc3)cc2s1 [Example 15] | 8.70 | 7.66 | 6.54 | 7.82 | 8.30 | 7.82 | 8.22
N=C(N)c1nc2ccc(OC(=O)c3ccco3)cc2s1 [Example 13] | 8.52 | 9.00 | 6.38 | 8.70 | 8.40 | 7.60 | 8.05
